Source: publication PMC5187867, “Crystal Structure of a Putative Cytochrome P450 Alkane Hydroxylase (CYP153D17) from Sphingomonas sp. PAMC 26605 and Its Conformational Substrate Binding” (International Journal of Molecular Sciences, 2016)

Target: CYP153D17 (Sphingomonas sp. PAMC 26605, UniProt A0ACD6BAR9)
Assay: UV-Vis spectral binding titration (substrate binding assay) of purified CYP153D17
Details: 1 μM CYP153D17; for Kd: apparent dissociation constant from titration curves (A390-A420); for Spin Shift (%): shift in heme spin state from low-spin (Soret maximum at 420 nm) to high-spin (390 nm)
Procedure: To determine the binding affinity of CYP153D17, spectral binding titrations were performed with the alkanes (decane and dodecane) and fatty acids (capric acid, lauric acid, and myristic acid). All tested substrates changed the spectrum of CYP153D17, with a shift of the Soret band at 420 to 390 nm, which is typical of the high-spin form (Figure 2), after which the apparent dissociation constants from the titration curves (Kd values) were obtained (Table 1). Dodecane, capric acid, and lauric acid binding to CYP153D17 induced a ≥90% shift in the heme spin state from low-spin (Soret maximum at 420 nm) to high-spin (Soret maximum at 390 nm), whereas decane and myristic acid induced a ≥80% shift in the same heme spin state.
To determine whether CYP153D17 can bind alkanes and fatty acids, a UV-Vis (Ultraviolet-Visible) spectral binding titration assay was performed. Binding of the substrate to CYP153D17 induced a shift of the Soret band of the CYP absorption spectrum from A420 to A390 [30]. Alkanes (decane and dodecane) and fatty acids (capric acid, lauric acid, and myristic acid) were dissolved in ethanol to prepare stock solutions of different concentrations (0.4–5 mM) for each substrate. Binding of substrate to CYP153D17 was carried out by the consecutive addition of 1-μL aliquots from the stock solutions to 1 mL of 1 μM CYP153D17 solution, and the UV–Vis spectra of the mixture were recorded. To calculate Kd, the difference between adsorption at A390 and A420 was calculated, corrected with the A390-to-A420 value at 0 M substrate, and plotted against the substrate concentrations. The data were fitted to equations as described by Funhoff et al..

Chain of CYP153D17 (A0ACD6BAR9 1-407): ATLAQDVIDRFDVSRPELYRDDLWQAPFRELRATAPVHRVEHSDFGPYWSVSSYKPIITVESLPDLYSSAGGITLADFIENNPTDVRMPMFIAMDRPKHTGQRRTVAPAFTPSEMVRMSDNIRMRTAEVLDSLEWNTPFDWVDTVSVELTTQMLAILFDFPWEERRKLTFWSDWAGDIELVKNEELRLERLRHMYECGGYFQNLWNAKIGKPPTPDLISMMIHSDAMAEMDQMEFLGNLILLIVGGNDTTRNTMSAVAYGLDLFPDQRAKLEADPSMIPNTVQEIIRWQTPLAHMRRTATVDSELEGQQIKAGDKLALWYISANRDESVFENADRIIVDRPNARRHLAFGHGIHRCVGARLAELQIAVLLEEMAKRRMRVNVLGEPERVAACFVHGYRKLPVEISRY

SMILES | Kd [nM] | Spin Shift (%) | Spin Shift (%) (listed as capric acid) | Spin Shift (%) (listed as decane) | Spin Shift (%) (listed as lauric acid) | Spin Shift (%) (listed as myristic acid)
CCCCCCCCCC(=O)O [Capric acid, capric acid] | 460 ± 410 | ≥90 | ≥ 90 | – | – | –
CCCCCCCCCC [Decane, decane] | 590 ± 690 | ≥80 | – | ≥ 80 | – | –
CCCCCCCCCCCC [Dodecane, dodecane] | 420 ± 140 | – | – | – | – | –
CCCCCCCCCCCC(=O)O [Lauric acid, lauric acid] | 490 ± 700 | ≥90 | – | – | ≥ 90 | –
CCCCCCCCCCCCCC(=O)O [Myristic acid, myristic acid] | 540 ± 330 | ≥80 | – | – | – | ≥ 80
